Results taken from patent US6262083A, “Genipin derivative having liver protection activity” (priority 1997, dated 2001).
pEC50: −log10 of the molar value. Like-named read-outs stand apart in the source and are kept apart here.

Columns and labels:
[1] = cited from earlier work; for in vivo activities: in words
HBV [2] = settings: Korean Patent Laid-open No. 94-1886; cited from earlier work
[3] = cytotoxicity test, neutral red dye uptake method; assay type: cell-based; settings: human, 2.2.15 cells, 2.2.15 cell culture, A510, read-out: IC50 (cytotoxicity)
Protocol: Cytotoxivity test was carried out in order to determine whether the antiviral effect of the compound according to the present invention is due to the general influence on cell growth or not. In the present experiment, neutral red dye uptake method was used. This is a standard method widely utilized for examining cell survival, by which the variety of relations between viruses such as HSV or HIV and host organism can be understood.
Cytotoxicity test was performed on a 96-well tissue culture plate. Cells were cultured and treated with test compounds in the same manner as Biological Example 1, and the experiments at 4-kind concentrations were repeated threetimes, respectively. Since the relative toxicity can be determined form the uptake level of neutral red dye, quantitative analysis was carried out using the absorbance of internalized dye at 510 nm (A510).

liver cells = assay: liver protection effect in carbon tetrachloride / D-galactosamine model, serum ALT (GPT) or AST in rats, oral for 4 days; assay type: in vivo; settings: 100 mg/kg, p.o
Protocol: The efficacy of compounds of formulas (I)a, (I)b, (I)c and (I)d was measured according to the method of carbon tetrachloride model [referred to: Philippe letteron et al., Biochemical Pharmacology, 39, 12, 2027~2034, 1990] and D-galactosamine model [referred to: Koji Hase et al., Biol. Pharm. Bull., 20, 4, 381~385, 1997].
Carbon tetrachloride and D-galactosamine are known as the compounds inducing the severe damage to liver cells, because carbon tetrachloride suppresses the biosysthesis of protein in the liver and induces the necrosis of liver cells, and D-galactosamine also induces the necrosis of liver cells by changing the structure of liver cell membranes.
In the present invention, the compounds of formulas (I)a, (I)b, (I)c and (I)d were orally administered to the rats as experimental animals for 4 days, and then the liver protection effect was examined by measuring the serum ALT or AST values in the experimental animals (referred to: Biol. Prarm. Bull., 20, 4, 38 1~385, 1997; Toxicology and Applied Pharmacology, 95, 1~11, 1988).
Following is calculation formula to evaluate liver protection properties of compounds of formulas (I)a, (I)b, (I)c and (I)d; [formula]
the control group means the group to which carbon tetrachloride or D-galactosamine is administered and the liver cells are impaired;
the normal group means the group to which normal solution is administered.
The liver protection effects of compounds of formulas (I)a, (I)b, (I)c and (I)d are shown to following Table 1 in comparison with known liver protection compound silimarin.

ICR mouse = assay: acute toxicity in ICR mouse; assay type: in vivo
Protocol: (§1) On the other hand, the acute toxicity of compounds of formulas (I)a, (I)b, (I)c and (I)d is measured using mouse according to the standard of drug toxicity test. The mouse is selected from the 4 weeks old ICR mouse and each dosage of 250 mg/kg, 500 mg/kg, 1,000 mg/kg and 2,000 mg/kg compounds of formulas (I)a, (I)b, (I)c and (I)d are administered after suspending the compounds in the corn oil.

[4] = acute toxicity in ICR mouse; assay type: in vivo; settings: mouse, in vivo, read-out: Lethal ratio (%)
Protocol: as §1

HBV [5] = assay: inhibitory effect on HBV replication in 2.2.15 cell culture; assay type: cell-based; settings: for pEC50: Hepatitis B virus, 216 h, read-out: ED50 (inhibitory effect on HBV replication); for SI (selectivity Index, IC50/ED50): cytotoxicity IC50 / anti-HBV ED50, 2.2.15 cell
Protocol: Test for identifying the anti HBV effect of the compound of the present invention was carried out according to a known assay method (see, Korba and Milman, Antiviral Res., 15, 217, 1991). The assay procedure is briefly described in the following.
2.2.15. cell was cultured and preserved in RPM 11640 culture medium containing 5% fetal bovine serum (FBS), 2 mM glutamine and 50 μg/ml gentamicin sulfate. Resistance to G418 of the cell culture and degree of Mycoplasma contamination were examined according to conventional methods.
Cells (1×10^4 /cm^2) were inoculated into a multi-well tissue culture plate, confluently cultured for 7 days, and then kept for 2 or 3 days in confluent condition to stabilize the HBV DNA level. Then, culture medium was replaced 24 hours before cells were exposed to test compound. During the treatment of 9 days, culture medium was replaced and then test compound was added to the fresh culture medium at intervals of 24 hours. Culture medium was collected immediately before the first introduction of test compound, and after 3, 6, 9 days, respectively, and stored at -70° C. before HBV DNA analysis. Then, cytolysis was carried out to analyze the intracellular HBV DNA.
To analyze the extracellular HBV DNA, 0.2 ml of culture medium was incubated in 1M NaOH/10×SSC (1×SSC=0.15M NaCl/0.015M sodium citrate, pH 7.2) for 20 minutes at 25° C. and then immediately applied to a nitrocellulose membrane presoaked in 20×SSC using a slot blot apparatus. The sample was washed twice with 0.5 ml of 1M Tris/2M NaCl (pH 7.2) and once with 0.5 ml of 20×SSC to neutralize, and then it was washed again with 2×SSC and heated at […] for one hour under vacuum. Generally, the cells which have been cultured and preserved in a dish having a diameter of 10 cm are dissolved in 6 ml of lysis buffer, and the […] DNA is prepared according to the method of Korba et al., 1991.
10 μg/lane of cellular DNA sample was digested with restriction enzyme Hind III. Then, the digested sample was applied to 1% agarose gel electrophoresis and transferred to a nitrocellulose membrane.
3.2 kb HBV DNA fragment obtained by EcoR I-digestion and purification was labeled with [^32 P]dCTP using nick translation method. This labeled fragment was used as a hybridization probe. Condition for hybridization and post-washing were controlled by referring to the method of Korba et al., 1991 and HBV nucleic acid content among test sample was determined by Ambis beta scanner. The relative radioactivity of ^32 P hybridized to the test sample was compared with that of ^32 P hybridized to the standard amount of HBV DNA which was applied to each nitrocellulose membrane filter (gel or slot blot). From the calibration curve, the amount of HBV DNA corresponding to the relative cpm value was calculated.
Since the content of intracellular and extracellular HBV DNA has some inherent variations, only inhibition greater than 3.5-fold in the case of HBV virion DNA or 3.0-fold in the case of HBV DNA replication intermediates form the average level of HBV DNA formed in the untreated cell were considered to be statistically significant (P<0.05) in the present experiment. The lever of HBV DNA integrated during each cellular DNA preparation (which remains constant per cell in the present experiment) was used to calculate the level of intracellular HBV DNA formed, thereby the technical variations inherent in the blot hybridization analysis can be eliminated. Typical values for extracellular HBV virion DNA in the untreated cells ranged from 50 to 150 pg/ml culture medium with an average value of about 75 pg/ml. Intracellular HBV DNA replication intermediates (RI) in the untreated cells ranged form 50 to 100 pg/μg cellular DNA with an average value of about 74 pg/μg. […]

[6] = 2.2.15 cell culture, 9 days treatment

SMILES	in vivo activities [1]	HBV replication (HBV [2])	CC50 at 216 h [3]	Liver protection effect (GPT, %) (liver cells)	Number of dead animals/Number of administered animals (ICR mouse; 250 mg/kg)	Number of dead animals/Number of administered animals (ICR mouse; 500 mg/kg)	Number of dead animals/Number of administered animals (ICR mouse; 1000 mg/kg)	Number of dead animals/Number of administered animals (ICR mouse; 2000 mg/kg)	mortality ([4]; 250 mg/kg)	mortality ([4]; 500 mg/kg)	mortality ([4]; 1000 mg/kg)	mortality ([4]; 2000 mg/kg)	pEC50 (HBV [5]; [6])	SI (selectivity Index, IC50/ED50) (HBV [5])	pEC50 (HBV [5])	anti-tumor effect ([1]; Japanese Patent Laid-open No. 80/164625)
OCC1=C[C@@H](O)[C@@H]2C=CO[C@@H](O[C@@H]3O[C@H](CO)[C@@H](O)[C@H](O)[C@H]3O)[C@H]12 [aucubin]	liver-protection, inhibition of biosynthesis of RNA and protein, detoxification as well as antiviral activity	inhibit the HBV replication														
COC(=O)C1=CO[C@@H](OCc2ccccc2)[C@@H]2C(/C=N/OC(C)(C)C)=CC[C@H]12 [Compound (I)c, methyl (1S,5R,6S)-5-benzyloxy-7-(t-buthoxyiminomethyl)-4-oxa-bicyclo [4.3.0]nona-2,7-dien-2-carboxylate]			180 µM	64%	0/5	0/5	0/5	0/5	0%	0%	0%	0%	4.52	5.7		
COC(=O)C1=CO[C@@H]2O[C@H](OC)[C@@H]3CC[C@H]1[C@H]23 [Compound (I)b, (2S,2aR,4aS,7aR,7bS)-2-methoxy-5-methoxycarbonyl-2a,3,4,4a,7a,7b-hexa-hydro-2H-1,7-dioxacyclopent[c.d]indene]			90 µM	57%	0/5	0/5	0/5	0/5	0%	0%	0%	0%	4.40	3.0		
COC(=O)C1=CO[C@@H](OCc2ccccc2)[C@@H]2C(CN=[N+]=[N-])=CC[C@H]12 [Compound (I)a, methyl (7R,3aS,7aS)-1-azidomethyl-7-benzyloxy-3,7,3a,7a-tetrahydro-6-oxaindene-4-carboxylate]			120 µM	65%	0/5		0/5	0/5	0%	0%	0%	0%	4.10	4.5		
Nc1ccn([C@H]2CC[C@@H](CO)O2)c(=O)n1 [ddC, dideoxy cytidine, reference compound]			> 30 µM											> 2.0	4.82	
COC(=O)C1=CO[C@@H](O)[C@@H]2C(CO)=CC[C@H]12 [genipin]	liver-protection, inhibition of biosynthesis of RNA and protein, detoxification as well as antiviral activity	inhibit the HBV replication														effective as an anti-tumor agent
COC(=O)C1=CO[C@H](OCc2ccccc2)[C@H]2[C@@H]1CC1OC(C)(C)OC12CNC(=O)Nc1cccnc1 (stereo partly drawn) [Compound (I)d, methyl (1S,8S,12S)-2-[(3-pyridyl)ureido]methyl-4,4-dimethyl-3,5,11-trioxa-12-benzyloxy-tricyclo[6.4.0.0<2,6>]dodec-9-en-9-carboxylate]			70 µM	74%	0/5	0/5	0/5	0/5	0%	0%	0%	0%	4.70	2.5		
